According to patent publication US4250259A, “Microbiological production of ketones from C3 -C6 secondary alcohols” (priority 1979, dated 1981):
Read-outs that look alike come from different tables or passages of the source.

Tests used:
[1] = test system: purified secondary alcohol dehydrogenase; experiment: substrate specificity, electron acceptor and stoichiometry of purified yeast SADH; conditions: for oxidation by the purified yeast secondary alcohol dehydrogenase: examined spectrophotometrically
[2] = test system: purified secondary alcohol dehydrogenase (SADH); experiment: inhibition of purified SADH by metal-chelating agents, thioreagents, metals; assay type: biochemical, Pseudomonas sp. ATCC 21439
Experimental: Secondary alcohol dehydrogenase (SADH) from an obligate methanol utilizer, Pseudomonas sp. ATCC 21439 was purified as follows. […] 0.05 M sodium phosphate buffer, pH 7.0 with 0.5 mM dithiothretol (buffer A) and were disrupted sonically (5×1 min.). The crude extract was separated by centrifugation. The crude extract was heat-treated at 50° C. in a water bath for 10 minutes. The resulting precipitate was removed by centrifugation. To the supernatant solution, 25 ml of protamine sulfate solution (2% solution in 0.1 M Tris base) was added dropwise with continuous stirring. After standing for 30 minutes, the extract was centrifuged. The supernatant solution was fractionated with solid ammonium sulfate. […] This DEAE-cellulose eluate was concentrated by ammonium sulfate fractionation. Material precipitating between 30 and 50% ammonium sulfate saturation was collected by centrifugation and dialyzed overnight against A. This fraction was further washed and filtered through an Amicon unit with XM 50 membrane. The concentrated fraction (6 ml) inside the Amicon unit was applied to an Affi-Gel Blue column (0.8 cm×18 cm) which had been equilibrated with buffer A for affinity chromatography. The column was washed overnight with buffer A (0.18 ml./min.) and then was eluted with buffer A containing 5 mM NAD. Each 1 ml. fraction was collected.
The purified secondary alcohol dehydrogenase enzyme (SADH) may be used directly for converting C3 -C6 secondary alcohols to the corresponding methyl ketones by the procedures described above; however, a source of NAD^+ must be added to the reaction medium. One can determine the NAD-linked secondary alcohol dehydrogenase activity with a fluorescence spectrophotometer (Perkin Elmer, Model MPF 44A) by following the formation of reduced NAD (Ex 340 nm, Em 460 nm). The assay system (3 ml.) will typically contain: sodium phosphate buffer pH 7.0, 150 μmol; NAD 1.0 μmol; a given amount of enzyme preparation; and 20 μmol secondary alcohol. The reaction is started by the addition of secondary alcohol. One unit of SADH enzyme activity represents the reduction of one nmole NAD per minute.
The effect of metal-chelating agents and thioreagents on the activity of the purified SADH enzyme were studied. […] The possibility of ethanol or n-propanol as an inhibitor was studied.

[3] = test system: cell-free particulate fractions of methane-grown methylotrophs; experiment: inhibitors and electron donors of n-alkane conversion to sec. alcohols by cell-free particulate fractions; assay type: biochemical
Text: The conditions for preparing the cell suspensions or the cell-free particulate fractions from methane-grown methylotroph microorganisms is the same as described above.

[4] = test system: Methylococcus capsulatus CRL M1 NRRL B-11,219; experiment: conversion of n-alkanes to oxidation products by cell suspensions (Table XVIII); assay type: cell-based; conditions: methane-grown cell suspension, pH 7.0
Experimental: (§1) ^(a) Cell-suspensions of methanegrown methylotroph microorganisms
(§2) indicated in 0.15 M phosphate buffer, pH 7.0 incubated in the alkanes as
(§3) indicated at 3° C. The oxidation products were determined by g.l.c

[5] = test system: Methylosinus trichosporium OB3b NRRL B-11,196; experiment: as above; assay type: cell-based; conditions: methane-grown cell suspension, pH 7.0
Experimental: as §1, §2, §3

[6] = test system: cell suspensions of C1-utilizers; experiment: studies on production of 2-butanone from 2-butanol by cell suspensions of the strains tested; assay type: cell-based; conditions: for inhibition of production of 2-butanone from 2-butanol by cell suspensions: strains tested
Text: The following summarizes tests conducted on the optimal conditions for the production of methyl ketones from C3 -C6 sec. alcohols.
The substrate specificity for the oxidation of C3 -C6 secondary alcohols by the strains of C1 -utilizers was studied.

cell-free SADH system = experiment: cofactor requirement of the cell-free SADH systems; assay type: biochemical; conditions: cell-free systems tested
Experimental: To prepare the cell-free secondary alcohol dehydrogenase (SADH) system, the washed cells were disrupted with a Wave Energy Ultrasonic Oscillator, Model W201 (Wave Energy System, Inc., Newtown, Pa.) and centrifuged at 20,000×g. for 30 minutes. […] The enzyme activity was measured with a fluorescence spectrophotometer (Perkin Elmer, Model MPF 44A) by following the formation of reduced NAD (EX 340 nm, Em 460 nm). The formation of reduced NAD was also followed with an absorption spectrophotometer at 340 nm. The assay system (3 ml.) contained: potassium phosphate buffer pH 7.0; 150 μmol.; NAD 1 μmol.; a given amount of enzyme preparation; and secondary alcohol 10 μmol. The reaction was started by the addition of substrate. One unit of enzyme activity represents the reduction of one μmole NAD per minute. Protein concentrations were determined by the Lowry method (J. Biol. Chem., 193: 255-275 (1951)).

[7] = test system: purified secondary alcohol dehydrogenase (SADH); experiment: substrate specificity and Michaelis constants of purified SADH; assay type: biochemical, Pseudomonas sp. ATCC 21439
[8] = each inhibitor at a final concentration of 1 mM, measured spectrofluorometrically

CCCCCCC(C)O (stereo not drawn) [2-octanol]
oxidation by the purified yeast secondary alcohol dehydrogenase [1]: not oxidized

[Fe+2] [ferrous]
% inhibition of SADH activity [2, 8]: 50%

CCN1C(=O)C=CC1=O [N-ethylmalemide, N-ethylmaleimide]
inhibition of SADH activity [2]: not inhibited
% inhibition of SADH activity [2, 8]: 6%

C=CC [propylene]
inhibition of conversion of n-alkanes to sec. alcohols (words) [3]: inhibited
inhibition of conversion of n-alkanes to sec. alcohols (words) ([3]; listed as Propylene): inhibit

[N-]=[N+]=[N-] [Sodium azide]
% inhibition of SADH activity [2, 8]: 10%

[Zn+2] [Zn^++]
stimulation of SADH activity ([2]; addition of exogenous zinc): did not stimulate
% inhibition of SADH activity [2, 8]: 0%

CCCCO [butan-1-ol]
oxidation by the purified yeast secondary alcohol dehydrogenase [1]: not oxidized

CC [Ethane]
Conversion Rate, product Ethanol [4]: 2.0 μmoles/hr./mg./protein
Conversion Rate, product Ethanol [5]: 1.3 μmoles/hr./mg./protein

c1ccc(-c2ccccn2)nc1 [α,α-bipyridyl]
inhibition of conversion of n-alkanes to sec. alcohols (words) [3]: inhibited
inhibition of production of 2-butanone from 2-butanol by cell suspensions [6]: inhibited
% inhibition of SADH activity [2, 8]: 70%

C[n+]1c2ccccc2nc2ccccc21 [phenazine methosulfate, reference compound]
effectiveness as cofactor for oxidation of 2-butanol / C3-C6 secondary alcohols (cell-free SADH system): not effective
ability to act as electron acceptor/carrier for the purified enzyme [1]: could not act as electron carrier

CC(O)CO (stereo not drawn) [1,2-propandiol]
oxidation by the purified yeast secondary alcohol dehydrogenase [1]: not oxidized

CCCCCO [pentan-1-ol]
oxidation by the purified yeast secondary alcohol dehydrogenase [1]: not oxidized

CC(C)CO [isobutanol]
oxidation by purified SADH [7]: not oxidized

[Ni+2] [nickel]
% inhibition of SADH activity [2, 8]: 20%

CCCO [n-propanol]
inhibition of SADH activity [2]: did not inhibit
oxidation by the purified yeast secondary alcohol dehydrogenase [1]: not oxidized

[Cu+2] [cupric]
% inhibition of SADH activity [2, 8]: 25%

O=Cc1ccccc1 [benzaldehyde]
oxidation by purified SADH [7]: not oxidized

CO [methanol]
oxidation by the purified yeast secondary alcohol dehydrogenase [1]: not oxidized

O=C(O)CI [iodoacetic acid]
% inhibition of SADH activity [2]: 0%
inhibition of SADH activity [2]: not inhibited

[Fe+3] [ferric]
% inhibition of SADH activity [2, 8]: 35%

C [Methane]
Conversion Rate, product Methanol ([4]; […] phosphate buffer): 2.5 μmoles/hr./mg./protein
Conversion Rate, product Methanol ([5]; […] phosphate buffer): 1.5 μmoles/hr./mg./protein

O=C(O)c1cc(SSc2ccc([N+](=O)[O-])c(C(=O)O)c2)ccc1[N+](=O)[O-] [5,5'-dithiobis(2-nitrobenzoic acid)]
inhibition of SADH activity [2]: inhibited
% inhibition of SADH activity [2, 8]: 100%

[Mg+2] [Mg^++]
% inhibition of SADH activity [2, 8]: 0%

C=O [formaldehyde]
oxidation by purified SADH [7]: not oxidized

CCC=O [ropanal]
oxidation by purified SADH [7]: lower rate
relative percent rate of oxidation by SADH ([7]; 2-butanol = 100%): 2%

OC1CCCCC1 [cyclohexanol]
oxidation by purified SADH [7]: lower rate

O=C(O)CN(CCN(CC(=O)O)CC(=O)O)CC(=O)O [EDTA]
% inhibition of SADH activity [2]: 63%

O=C1C(Cl)=CC(=Nc2ccc(O)cc2)C=C1Cl [dichlorophenol indophenol, 2,6-dichlorophenol indophenol, reference compound]
effectiveness as cofactor for oxidation of 2-butanol / C3-C6 secondary alcohols (cell-free SADH system): not effective
ability to act as electron acceptor/carrier for the purified enzyme [1]: could not act as electron carrier

CC=O [acetaldehyde]
oxidation by purified SADH [7]: lower rate

CC(O)CCO (stereo not drawn) [butane 1,3-diol]
oxidation by the purified yeast secondary alcohol dehydrogenase [1]: not oxidized
oxidation by purified SADH [7]: lower rate

[Co+2] [Co^++]
% inhibition of SADH activity [2, 8]: 0%

Oc1ccccc1 [phenol]
oxidation by purified SADH [7]: not oxidized

NNC(N)=S [thiosemicarbazide]
inhibition of conversion of n-alkanes to sec. alcohols (words) [3]: inhibited

CCO [ethanol]
inhibition of SADH activity [2]: did not inhibit
oxidation by the purified yeast secondary alcohol dehydrogenase [1]: not oxidized

Cc1cc2nc3c(=O)[nH]c(=O)nc-3n(C[C@H](O)[C@H](O)[C@H](O)COP(=O)(O)OP(=O)(O)OC[C@H]3O[C@@H](n4cnc5c(N)ncnc54)[C@H](O)[C@@H]3O)c2cc1C [FAD, flavin adenine dinucleotide, reference compound]
effectiveness as cofactor for oxidation of 2-butanol / C3-C6 secondary alcohols (cell-free SADH system): not effective
ability to act as electron acceptor/carrier for the purified enzyme [1]: could not act as electron carrier

NC(=O)c1ccc[n+]([C@@H]2O[C@H](COP(=O)(O)OP(=O)(O)OC[C@H]3O[C@@H](n4cnc5c(N)ncnc54)[C@H](OP(=O)(O)O)[C@@H]3O)[C@@H](O)[C@H]2O)c1 [NADP, reference compound]
effectiveness as cofactor for oxidation of 2-butanol / C3-C6 secondary alcohols (cell-free SADH system): not effective
ability to act as electron acceptor/carrier for the purified enzyme [1]: could not act as electron carrier

NC(=O)C1=CN([C@@H]2O[C@H](COP(=O)(O)OP(=O)(O)OC[C@H]3O[C@@H](n4cnc5c(N)ncnc54)[C@H](OP(=O)(O)O)[C@@H]3O)[C@@H](O)[C@H]2O)C=CC1 [NAD(P)H]
effectiveness as cofactor for oxidation of 2-butanol / C3-C6 secondary alcohols (cell-free SADH system): not effective

NC(=O)C1=CN([C@@H]2O[C@H](COP(=O)(O)OP(=O)(O)OC[C@H]3O[C@@H](n4cnc5c(N)ncnc54)[C@H](OP(=O)(O)O)[C@@H]3O)[C@@H](O)[C@H]2O)C=CC1 [NADPH, reduced nicotinamide adenine dinucleotide phosphate]
use as electron donor for hydroxylation of n-alkanes [3]: could also be utilized as an electron donor

NC(=O)C1=CN([C@@H]2O[C@H](COP(=O)(O)OP(=O)(O)OC[C@H]3O[C@@H](n4cnc5c(N)ncnc54)[C@H](O)[C@@H]3O)[C@@H](O)[C@H]2O)C=CC1 [NADH, reduced nicotinamide adenine dinucleotide]
use as electron donor for hydroxylation of n-alkanes [3]: requires

NC(N)=S [Thiourea]
inhibition of conversion of n-alkanes to sec. alcohols (words) [3]: inhibited
inhibition of production of 2-butanone from 2-butanol by cell suspensions [6]: not inhibited
inhibition of SADH activity [2]: not inhibited
% inhibition of SADH activity [2, 8]: 0%

CCC(O)CO (stereo not drawn) [butane 1,2-diol]
oxidation by the purified yeast secondary alcohol dehydrogenase [1]: not oxidized
oxidation by purified SADH [7]: not oxidized

Oc1cccc2cccnc12 [8-hydroxyquinoline]
inhibition of conversion of n-alkanes to sec. alcohols (words) [3]: inhibited

O=C(O)CCC(=O)O [succinic acid]
oxidation by purified SADH [7]: not oxidized

[Mn+2] [Mn^++]
% inhibition of SADH activity [2, 8]: 0%

cytochrome c [reference compound]
ability to act as electron acceptor/carrier for the purified enzyme [1]: could not act as electron carrier

CCCCCC(C)O (stereo not drawn) [2-heptanol]
rate of oxidation of secondary alcohols by strains of C1-utilizers ([6]; cell suspensions): much slower rate
oxidation by the purified yeast secondary alcohol dehydrogenase [1]: not oxidized

CC(O)C(C)O (stereo not drawn) [butane 2,3-diol]
oxidation by purified SADH [7]: lower rate
